Experiments:
[1] = test system: HER2-overexpressing human esophagus cancer cell line OE19; experiment: OE19 subcutaneous xenograft, zongertinib with trastuzumab; type: in vivo, NMRI-Foxn1^nu mice; details: day 14; for Regressions >30%: tumors regressed/total (partial response)
Description: The study is performed in human esophagus cancer cell line OE19 grown as subcutaneous xenografts in NMRI-Foxn1^nu mice. Day 1 was the first day, day 14 the last day of treatment and final day of analysis.
OE19 is obtained and cultured as described in Example 3 (see paragraph 3.1.2).
Mice in the control group are treated with vehicle, i.e.: • (iii) 0.5% Natrosol, administered once daily for the duration of the treatment intragastrally by gavage needle with a volume of 10 ml/kg body weight; and • (iv) saline (0.9%), administered once weekly intraperitoneally with a volume of 10 ml/kg.
Tumor volumes and side effects are monitored as described in Example 1 (see paragraph 1.1.6), except that control animals are sacrificed when the median tumor volume of the group reaches a size of approximately 640 mm^3.
The statistical evaluation of the tumor volume and the body weight is conducted on day 14 (last day of the study). Apart from this, statistical analysis was performed as described in Example 1 (see paragraph 1.1.7), with no evaluation of tumor growth after stop of treatment.

[2] = test system: T-DXd-resistant NCI-N87 cells; experiment: Proliferation assay (CellTiter Glo), T-DXd resistant NCI-N87 cells; type: cell-based, human; details: 5 days of incubation, in vitro
Description: Per well, 1000 cells are seeded in 40 μL medium in white, sterile 384-well culture plates (TC-treated; PerkinElmer #6007680) and incubated overnight in a humidified incubator at 37° C. and 5% CO2. 0.1% DMSO-control or serial compound dilution in triplicates are added. […] After 5 days of incubation with test compounds, the cells plates are measured upon addition of CellTiter Glo Luminescent Cell Viability Reagent (Promega, #G9243) to assess cell viability. The plates are placed on a shaker for five minutes and additionally incubated for 10 minutes at room temperature to induce cell lysis and to stabilize the luminescent signal. The luminescent signal of each well is measured in an EnSpire Multilabel Plate Reader 658 (PerkinElmer). The dose response curves are fit and visualized using Boehringer Ingelheim's proprietary software MegaLab and PRISM (GraphPad Inc.).

[3] = zongertinib 20 mg/kg qdx14 p.o., trastuzumab 20 mg/kg q7dx2 i.p., alone or combined

C=CC(=O)NC1CCN(c2ncc3ncnc(Nc4ccc(Oc5ccc6c(c5)ncn6C)c(C)c4)c3n2)CC1 [Zongertinib, N-{1-[8-({3-methyl-4-[(1-methyl-1H-1,3-benzodiazol-5-yl)oxy]phenyl}amino)-[1,3]diazino [5,4-d]pyrimidin-2-yl]piperidin-4-yl}prop-2-enamide]
stable disease ([1]; number of tumors out of 8, zongertinib 20 mg/kg qdx14, trastuzumab 20 mg/kg q7dx2, monotherapies): no stable disease | Regressions >30% [1, 3]: 0/8 | Regressions >30% ([1]; zongertinib 20 mg/kg qdx14 p.o., trastuzumab 20 mg/kg q7dx2 i.p., alone or combined, listed as zongertinib): no partial response | TGI [1, 3]: 80% | difference in IC50 between parental and T-DXd-resistant NCI-N87 cells [2]: less than 10 fold | sensitivity (dose response, cell viability) [2]: sensitive

— US20250228858A1, “ANTI-CANCER COMBINATION THERAPY” (Boehringer Ingelheim International GmbH, priority 2023, published 2025)
